Measured values reported in PubChem BioAssay (NCI).
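These data come from cells grown in 96-well plates and exposed to compound for 48 hours at five concentrations. GI50 = concentration required for 50% inhibition of growth. TGI marks complete inhibition of growth.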

Columns and labels:
Assay in all cases: inhibition of tumour cell growth, NCI panel, 48 h
[1] = test system: KM20L2 colon
[2] = test system: DMS 273 small cell lung
[3] = test system: M19-MEL melanoma
[4] = test system: RXF-631 renal
[5] = test system: XF 498 CNS
[6] = test system: MDA-N
[7] = test system: NCI/ADR-RES ovarian
[8] = test system: MDA-MB-231 breast
[9] = test system: BT-549 breast

SMILES	TGI [1] [µM]	TGI [2] [µM]	TGI [3] [µM]	TGI [4] [µM]	TGI [5] [µM]	GI50 [6] [µM]	GI50 [7] [µM]	TGI [6] [µM]	TGI [8] [µM]	TGI [9] [µM]	TGI [7] [µM]
C=CCN=C1NC(=O)C(CC(=O)Nc2cccc(Cl)c2)S1 (configuration not stated)	> 100	> 100	> 100	> 100	> 100	–	–	–	–	–	–
CC1CCCc2c1n[nH]c2CC1CC(=O)NC(=O)C1 (configuration not stated)	> 100	> 100	> 100	> 100	> 100	–	–	–	–	–	–
CSc1ccc(Cc2cc(C(C)(C)C)cc(C(C)(C)C)c2O)cc1	28.2	26.7	31.1	29.4	31.8	–	–	–	–	–	–
CC1=NC(C)=C(/C(C)=N/NC(=O)c2ccccc2O)C(C)/C1=C(/C)NNC(=O)c1ccccc1O (configuration not stated)	> 100	–	> 100	> 100	85.9	–	–	–	–	–	–
COc1ccc(C2=NN(C(C)=O)c3nc4ccccc4nc3O2)cc1	–	> 100	> 100	> 100	49.2	–	–	–	–	–	–
Cn1c(=O)nc2n(-c3ccc(F)c(F)c3)c3ccccc3nc-2c1=O	23.8	36.9	3.44	62.4	36.2	–	–	–	–	–	–
CCCC[C@H](CCc1ccccc1)N(C(=O)OC)N1CCC[C@H]1COC	30.2	35.6	40.4	32.4	28.5	–	–	–	–	–	–
CCCCCCCCCCNC(=S)OC	> 100	> 100	69.4	> 100	–	–	–	–	–	–	–
COC(=O)CCCCCOS(=O)(=O)c1ccc(C)cc1	> 100	> 100	> 100	> 100	> 100	–	–	–	–	–	–
O=C(/C=C/c1ccc(-c2ccccc2)cc1)c1ccccc1	–	–	48.5	69	53.1	–	–	–	–	–	–
CN1C(c2ccccc2)CC(=NO)CC1c1ccccc1 (configuration not stated)	> 100	> 100	> 100	> 100	–	76	48.8	–	–	–	–
CC(C)(C)OC(=O)NC(Cc1ccccc1)C(=S)N1CCCC1 (configuration not stated)	> 100	> 100	> 100	> 100	> 100	–	–	–	–	–	–
Cc1ccc(NC(=O)CCc2nnc3s/c(=C\C=C\c4ccccc4)c(=O)n23)cc1	> 100	> 100	> 100	> 100	> 100	–	–	> 100	> 100	> 100	> 78.6
O=[N+]([O-])c1cc(I)cc(/C=N/NS(=O)(=O)c2ccc(F)cc2)c1O	> 100	48.8	86.7	57.9	–	–	–	–	–	–	–
CCOC(=O)NC(=O)c1cn(C2CCCCC2)c(=O)n(C)c1=O	> 100	> 100	> 100	> 100	–	–	–	–	–	–	–
CC(=O)NNc1ncc(C(=O)/C=C/c2ccccc2C)s1	> 100	> 100	> 100	> 100	–	–	–	–	–	–	–
CON1C(=O)C2(CCCCC2)C(=O)C12C=CC(C)CC2 (configuration not stated)	> 100	> 100	> 100	> 100	> 100	–	–	–	–	–	–
Cc1ccc([N+](=O)[O-])cc1NC(=O)C(=O)Cc1nc2ccc(C(=O)c3ccccc3)cc2[nH]c1=O	> 100	> 100	> 100	> 100	> 100	–	–	–	–	–	–
